# Experimental data: patent publication US10183938B2, “Geminal substituted quinuclidine amide compounds as agonists of α-7 nicotonic acetylcholine receptors” (AXOVANT SCIENCES GMBH, priority 2014, dated 2019)
# Structures can show the parent of a compound that is named as a salt.
# Assays:
# male Wistar rats = test: Novel Object Recognition task (natural forgetting); format: in vivo, rat; settings: sub-cutaneous, 30 minutes before T1, 48-hour retention interval, p<0.05 novel vs. familiar object
# Text: Novel Object Recognition Task:
# The Novel Object Recognition (NOR) task is a behavioral assay commonly used to evaluate cognition, particularly recognition memory, in rodent models of CNS disorders. This test is based on the spontaneous tendency of rodents to spend more time exploring a novel object compared to a familiar one. The choice to explore the novel object reflects the use of learning and recognition memory. The assay is commonly used to evaluate potential therapeutic agents for Alzheimer's disease, other neurodegenerative diseases and psychiatric disorders.
# Male Wistar rats (Harlan Laboratories) weighing 350-400 grams were housed under a reversed light cycle and are tested during the dark cycle. Testing was done under low lux conditions, measured to be ˜2-7 lux under red light. Animals were habituated and weighed one day prior to testing. During habituation, animals were placed in a cylindrical arena and allowed to explore for 3 minutes. Training (T1) was conducted approximately 24 hours later, with one set of identical objects placed on opposite sides of the arena. Animals were allowed to explore the objects in 3-minute sessions. Animals were dosed with a designated treatment 15-60 minutes prior to testing depending on the pharmacokinetic profile of the compound before the start of T1. Drug or vehicle was dosed subcutaneously based on body weight at 5 mL/kg. Testing (T2) was done at 48 hours after T1. During testing, one familiar object is replaced with a novel object. Animals were allowed to explore both objects in 3-minute sessions.
# Animals were tracked using Noldus Ethovision XT (EthoVision XT version: 8.5, Noldus Inc. Wageningen, Netherlands) tracking software, using a 2 centimeter (cm) perimeter for each object as a separate zone. The test arena consisted of a cylinder, 80 cm diameter with 40 cm high walls of black acrylic that was opaque and matte. […]
# Contact time was defined as the amount of time (seconds) an animal spent within the 2 cm perimeter of an object. […] Statistical significance was determined using a Mann Whitney U-test and the criterion was set at p<0.05. […]
# [1] = molecular target: human α7 nAChRs transiently expressed in Xenopus laevis oocytes (Homo sapiens (Human), UniProt P36544); test: Oocyte electrophysiology screen (TEVC); format: cell-based; settings: 0.01 mM test compound, peak current relative to 0.2 mM ACh
# Sequence of human α7 nAChRs transiently expressed in Xenopus laevis oocytes (P36544 23-502 limits assumed): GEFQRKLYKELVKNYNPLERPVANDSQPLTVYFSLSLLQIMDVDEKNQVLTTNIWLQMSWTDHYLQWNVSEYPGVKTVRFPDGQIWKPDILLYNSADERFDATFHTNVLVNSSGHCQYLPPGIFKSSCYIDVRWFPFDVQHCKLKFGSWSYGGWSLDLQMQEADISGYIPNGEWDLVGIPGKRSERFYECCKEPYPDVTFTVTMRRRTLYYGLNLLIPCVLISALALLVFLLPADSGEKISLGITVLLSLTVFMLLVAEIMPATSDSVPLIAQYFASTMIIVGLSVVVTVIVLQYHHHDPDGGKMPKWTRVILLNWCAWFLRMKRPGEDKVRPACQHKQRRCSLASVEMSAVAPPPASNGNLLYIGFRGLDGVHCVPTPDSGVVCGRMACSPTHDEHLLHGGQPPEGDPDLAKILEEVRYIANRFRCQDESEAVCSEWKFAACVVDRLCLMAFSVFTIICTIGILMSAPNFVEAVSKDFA
# How it was run: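 Peak inward current from 0.01 mM compound, applied 30 s, is expressed relative to a 5 s 0.2 mM ACh reference response, in triplicate. Recordings used two-electrode voltage clamp at −80 mV in Xenopus oocytes with 90 s OR2 washes.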
# [2] = molecular target: human 5-HT3 serotonin receptors (Homo sapiens (Human), UniProt P46098); test: [3H]BRL 43694 competition binding; settings: CHO cell membranes, [3H]BRL 43694, Cheng Prusoff; read-out: h-5HT3 Ki
# Sequence of human 5-HT3 serotonin receptors (P46098 24-478): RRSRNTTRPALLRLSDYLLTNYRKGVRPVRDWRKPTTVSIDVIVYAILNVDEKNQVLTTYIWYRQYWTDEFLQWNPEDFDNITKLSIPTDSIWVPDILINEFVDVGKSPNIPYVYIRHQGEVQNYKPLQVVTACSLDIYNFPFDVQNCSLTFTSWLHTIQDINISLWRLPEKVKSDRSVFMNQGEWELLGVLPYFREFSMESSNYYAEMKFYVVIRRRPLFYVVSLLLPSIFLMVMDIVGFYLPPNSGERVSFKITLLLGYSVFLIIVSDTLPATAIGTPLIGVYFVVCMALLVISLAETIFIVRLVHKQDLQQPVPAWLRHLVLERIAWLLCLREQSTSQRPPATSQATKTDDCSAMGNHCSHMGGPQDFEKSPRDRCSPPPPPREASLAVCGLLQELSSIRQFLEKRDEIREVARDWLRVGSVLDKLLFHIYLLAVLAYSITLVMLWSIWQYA
smiles,measurement,setting,value
"O=C(NC1C2CCN(CC2)C12CC2)c1cc2ccc(Cl)cc2s1 (single isomer, unassigned; enantiomer1) [65a, 6-chloro-N-(1′-azaspiro[cyclopropane-1,2′-bicyclo[2.2.2]octan]-3′-yl)benzo[b]thiophene-2-carboxamide-enantiomer1 hydrochloride]",Active doses,male Wistar rats,0.3 mg/kg
same,% ACh @ 10 μM Oocyte,[1]; hydrochloride,682 % ACh
"Cc1ccc2cc(C(=O)NC3C4CCN(CC4)C34CC4)sc2c1 (single isomer, unassigned; enantiomer1) [68a, 6-methyl-N-(1′-azaspiro[cyclopropane-1,2′-bicyclo[2.2.2]octan]-3′-yl)benzo[b]thiophene-2-carboxamide-enantiomer1 hydrochloride]",Active doses,male Wistar rats,0.001 mg/kg
same,% ACh @ 10 μM Oocyte,[1]; hydrochloride,769 % ACh
"CC1(C)[C@H](NC(=O)c2cc3ccc(Cl)cc3s2)C2CCN1CC2 [(R)-12, (R)-6-chloro-N-(2,2-dimethylquinuclidin-3-yl)benzo[b]thiophene-2-carboxamide hydrochloride]",Active doses,male Wistar rats,30 mg/kg
same,Ki,[2],> 10000 nM
same,% ACh @ 10 μM Oocyte,[1],765 % ACh
"CC1(C)[C@H](NC(=O)c2cc3ccc(F)c(Cl)c3s2)C2CCN1CC2 [(R)-114, (R)-7-chloro-N-(2,2-dimethylquinuclidin-3-yl)-6-fluorobenzo[b]thiophene-2-carboxamide hydrochloride]",Ki,[2],620 nM
same,% ACh @ 10 μM Oocyte,[1],703 % ACh
"COc1cccc2cc(C(=O)N[C@@H]3C4CCN(CC4)C3(C)C)sc12 [(R)-116, (R)—N-(2,2-dimethylquinuclidin-3-yl)-7-methoxybenzo[b]thiophene-2-carboxamide hydrochloride]",Ki,[2],600 nM
same,% ACh @ 10 μM Oocyte,[1],963 % ACh
"O=C(N[C@@H]1C2CCN(CC2)C12CC2)c1cc2ccc(Cl)c(Cl)c2s1 [(R)-150, (R)-6,7-dichloro-N-(1′-azaspiro[cyclopropane-1,2′-bicyclo[2.2.2]octan]-3′-yl)benzo[b]thiophene-2-carboxamide hydrochloride]",Ki,[2],2200 nM
same,% ACh @ 10 μM Oocyte,[1],443 % ACh
"O=C(N[C@@H]1C2CCN(CC2)C12CC2)c1cc2ccc(Cl)c(F)c2s1 [(R)-151, (R)-6-chloro-7-fluoro-N-(1′-azaspiro[cyclopropane-1,2′-bicyclo[2.2.2]octan]-3′-yl)benzo[b]thiophene-2-carboxamide hydrochloride]",Ki,[2],> 10000 nM
same,% ACh @ 10 μM Oocyte,[1],409 % ACh
"COc1ccc2cc(C(=O)N[C@@H]3C4CCN(CC4)C34CC4)sc2c1F [(R)-155, (R)-7-fluoro-6-methoxy-N-(1′-azaspiro[cyclopropane-1,2′-bicyclo[2.2.2]octan]-3′-yl)benzo[b]thiophene-2-carboxamide hydrochloride]",Ki,[2],> 10000 nM
same,% ACh @ 10 μM Oocyte,[1],513 % ACh
"Cc1ccc2cc(C(=O)N[C@@H]3C4CCN(CC4)C34CC4)sc2c1Cl [(R)-156, (R)-7-chloro-6-methyl-N-(1′-azaspiro[cyclopropane-1,2′-bicyclo[2.2.2]octan]-3′-yl)benzo[b]thiophene-2-carboxamide hydrochloride]",Ki,[2],300 nM
same,% ACh @ 10 μM Oocyte,[1],403 % ACh
"O=C(N[C@@H]1C2CCN(CC2)C12CC2)c1cc2ccc(F)c(Cl)c2s1 [(R)-158, (R)-7-chloro-6-fluoro-N-(1′-azaspiro[cyclopropane-1,2′-bicyclo[2.2.2]octan]-3′-yl)benzo[b]thiophene-2-carboxamide hydrochloride]",Ki,[2],370 nM
same,% ACh @ 10 μM Oocyte,[1],180 % ACh
"O=C(N[C@@H]1C2CCN(CC2)C12CC2)c1cc2ccc(C3CC3)c(F)c2s1 [(R)-159, (R)-6-cyclopropyl-7-fluoro-N-(1′-azaspiro[cyclopropane-1,2′-bicyclo[2.2.2]octan]-3′-yl)benzo[b]thiophene-2-carboxamide hydrochloride]",Ki,[2],> 10000 nM
same,% ACh @ 10 μM Oocyte,[1],24 % ACh
"COc1cccc2cc(C(=O)N[C@@H]3C4CCN(CC4)C34CC4)sc12 [(R)-161, (R)-7-methoxy-N-(1′-azaspiro[cyclopropane-1,2′-bicyclo[2.2.2]octan]-3′-yl)benzo[b]thiophene-2-carboxamide hydrochloride]",Ki,[2],660 nM
same,% ACh @ 10 μM Oocyte,[1],493 % ACh
"O=C(N[C@@H]1C2CCN(CC2)C12CC2)c1cc2ccc(Cl)cc2o1 [(R)-163, (R)-6-chloro-N-(1′-azaspiro[cyclopropane-1,2′-bicyclo[2.2.2]octan]-3′-yl)benzofuran-2-carboxamide hydrochloride]",Ki,[2],2000 nM
same,% ACh @ 10 μM Oocyte,[1],446 % ACh
"CC1(C)[C@H](NC(=O)c2cc3cccc(Cl)c3o2)C2CCN1CC2.Cl [(R)-217, (R)-7-chloro-N-(2,2-dimethylquinuclidin-3-yl)benzofuran-2-carboxamide hydrochloride]",Ki,[2],1100 nM
same,% ACh @ 10 μM Oocyte,[1],473 % ACh
